Data on 15 molecules can be found in BindingDB's records for doi:10.1021/acs.jmedchem.9b00881 (University of Auckland, 2020).

The nature of assay [1]: Inhibition of perforin (unknown origin) assessed as reduction in perforin-mediated cell lysis in human Jurkat T cells incubated for 30 mins by 51Cr release based gamma counting method.
A short description of assay [2]: Inhibition of perforin in human KHYG-1 cells pre-treated with compound for 20 mins assessed as reduction in KHYG-1 cells-mediated cell lysis of human K562 cells measured after 4 hrs by 51Cr release based gamma counting method.

In the case of `CN1Cc2cc(-c3ccc(-c4cncc(NS(=O)(=O)c5ccccc5C(F)(F)F)c4)s3)cnc2C1=O`, the results for the concentration for half-maximal inhibition (IC50) in assay [1] and in assay [2] were 1.38 µM and 3.3 µM, respectively.

`CN(C)CCN1Cc2cc(-c3ccc(-c4cncc(NS(=O)(=O)c5ccc(F)cc5F)c4)s3)ccc2C1=O`: the concentration for half-maximal inhibition (IC50) – broadly, the concentration that gives 50% inhibition – in assay [1] was over 20 µM.

For the molecule `O=C1c2ccc(-c3ccc(-c4cncc(NS(=O)(=O)c5ccc(F)cc5F)c4)s3)cc2CN1CCCO`, the IC50 in assay [1] is over 20 µM.

For `COc1ncc(-c2ccc(-c3cnc4c(c3)CN(C)C4=O)s2)cc1NS(=O)(=O)c1ccccc1[N+](=O)[O-]`, the IC50 was determined as 2.3 µM in assay [1] and 1.6 µM in assay [2].

In the case of `COc1ncc(-c2ccc(-c3cnc4c(c3)CN(C)C4=O)s2)cc1NS(=O)(=O)c1ccc(F)cc1F`, the IC50 in assay [1] came to 3.34 µM; in assay [2], 4.43 µM.

Turning to `O=C1NCc2cc(-c3ccc(-c4cncc(NS(=O)(=O)c5ccc(F)cc5F)c4)s3)cnc21`, the IC50 in assay [1] was 5.73 µM.

In the case of `O=C1NCc2ncc(-c3ccc(-c4cncc(NS(=O)(=O)c5ccc(F)cc5F)c4)s3)cc21`, the values for the IC50 in assay [1] and in assay [2] were over 20 µM and 6.8 µM, respectively.

On to `O=C1c2ccc(-c3ccc(-c4cncc(NS(=O)(=O)c5ccc(F)cc5F)c4)s3)cc2CN1CCN1CCCCC1`, for which the IC50 in assay [1] was over 20 µM.

Consider `O=C1c2ccc(-c3ccc(-c4cncc(NS(=O)(=O)c5ccc(F)cc5F)c4)s3)cc2CN1CCN1CCOCC1`, for which the IC50 in assay [1] amounted to 17 µM.

Regarding `CN1Cc2cc(-c3ccc(-c4cncc(NS(=O)(=O)c5cccc(C(F)(F)F)c5)c4)s3)cnc2C1=O`, the IC50 in assay [1] is over 20 µM; in assay [2] it was 3.4 µM.

`O=C1c2ccc(-c3ccc(-c4cncc(NS(=O)(=O)c5ccc(F)cc5F)c4)s3)cc2CN1CC(O)CO` (configuration not stated): the half-inhibitory concentration (IC50) in assay [1] is 14.2 µM.

As to `CN1CCN(CCN2Cc3cc(-c4ccc(-c5cncc(NS(=O)(=O)c6ccc(F)cc6F)c5)s4)ccc3C2=O)CC1`, the IC50 in assay [1] is over 20 µM.

In the case of `O=C1c2ccc(-c3ccc(-c4cncc(NS(=O)(=O)c5ccc(F)cc5F)c4)s3)cc2CN1CCN1CCCC1`, in assay [1], the half-inhibitory concentration (IC50) is over 20 µM.

With `COc1ncc(-c2ccc(-c3cnc4c(c3)CN(C)C4=O)s2)cc1NS(=O)(=O)c1ccccc1C(F)(F)F`, the concentration for half-maximal inhibition (IC50) in assay [1] was found to be 0.78 µM; in assay [2], 2.21 µM.

In the case of `CN1Cc2cc(-c3ccc(-c4cncc(NS(=O)(=O)c5ccc(F)cc5F)c4)s3)cnc2C1=O`, the IC50 in assay [1] stood at 4.3 µM; in assay [2], 7.5 µM.
